The target of assay [1] is Human α2δ-1 subunit of Cav2.2 calcium channel (Homo sapiens, UniProt P54289). Kind of assay: biochemical. It is filed as binding.
For assay [2], the target named is Human μ-opioid receptor (Homo sapiens, UniProt P35372). As to the kind of experiment: biochemical. It is filed as binding.

The structures appear in SMILES notation. Read-outs that look alike come from different tables or passages of the source.

In patent US20220002314A1 (priority 2018, published 2022) one finds Ki data, which are given here for 33 molecules.

Chain of Human μ-opioid receptor (P35372 whole entry): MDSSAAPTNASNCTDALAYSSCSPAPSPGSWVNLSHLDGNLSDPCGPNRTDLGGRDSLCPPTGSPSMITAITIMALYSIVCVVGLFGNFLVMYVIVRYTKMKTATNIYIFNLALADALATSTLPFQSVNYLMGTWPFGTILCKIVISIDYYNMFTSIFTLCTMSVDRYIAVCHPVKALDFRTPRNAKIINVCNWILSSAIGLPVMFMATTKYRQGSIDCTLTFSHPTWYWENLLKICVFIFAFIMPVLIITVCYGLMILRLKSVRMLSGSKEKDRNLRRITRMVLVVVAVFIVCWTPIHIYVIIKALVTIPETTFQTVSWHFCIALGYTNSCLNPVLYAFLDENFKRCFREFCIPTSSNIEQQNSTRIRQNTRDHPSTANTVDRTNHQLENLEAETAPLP
Chain of Human α2δ-1 subunit of Cav2.2 calcium channel (P54289 25-1103): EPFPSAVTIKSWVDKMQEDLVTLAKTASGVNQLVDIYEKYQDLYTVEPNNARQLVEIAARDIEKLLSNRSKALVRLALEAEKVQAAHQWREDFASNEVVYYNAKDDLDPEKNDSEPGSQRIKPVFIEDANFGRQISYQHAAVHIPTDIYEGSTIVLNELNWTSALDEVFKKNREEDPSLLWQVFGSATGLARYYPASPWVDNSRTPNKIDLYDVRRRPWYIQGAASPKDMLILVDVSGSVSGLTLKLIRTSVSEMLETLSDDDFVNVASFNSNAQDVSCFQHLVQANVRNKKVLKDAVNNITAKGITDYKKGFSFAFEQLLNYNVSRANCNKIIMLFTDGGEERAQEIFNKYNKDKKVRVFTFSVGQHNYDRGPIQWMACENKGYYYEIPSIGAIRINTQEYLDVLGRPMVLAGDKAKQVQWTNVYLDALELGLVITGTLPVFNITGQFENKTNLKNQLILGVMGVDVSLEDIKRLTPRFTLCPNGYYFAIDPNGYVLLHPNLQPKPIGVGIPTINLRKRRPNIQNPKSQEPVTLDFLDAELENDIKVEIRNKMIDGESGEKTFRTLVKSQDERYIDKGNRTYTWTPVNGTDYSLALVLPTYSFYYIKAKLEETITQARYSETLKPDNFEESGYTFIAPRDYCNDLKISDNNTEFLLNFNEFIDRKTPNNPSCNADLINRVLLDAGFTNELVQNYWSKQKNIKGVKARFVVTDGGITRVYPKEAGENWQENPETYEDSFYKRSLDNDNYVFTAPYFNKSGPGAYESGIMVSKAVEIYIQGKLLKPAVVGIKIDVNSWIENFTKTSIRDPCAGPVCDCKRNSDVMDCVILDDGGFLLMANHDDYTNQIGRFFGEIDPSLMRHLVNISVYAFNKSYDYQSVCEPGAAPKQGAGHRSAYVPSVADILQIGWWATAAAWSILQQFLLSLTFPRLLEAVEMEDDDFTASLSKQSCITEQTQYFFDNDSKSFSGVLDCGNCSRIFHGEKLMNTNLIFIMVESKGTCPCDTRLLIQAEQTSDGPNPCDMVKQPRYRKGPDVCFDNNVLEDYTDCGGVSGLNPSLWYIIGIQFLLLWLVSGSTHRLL

Consider `CCCC(c1nc2ccc(Br)cc2c(=O)n1CC)N1C[C@@H](C)N[C@@H](C)C1` (stereo partly drawn) [Example 1, 6-Bromo-2-(1-((3S,5R)-3,5-dimethylpiperazin-1-yl)butyl)-3-ethylquinazolin-4(3H)-one], for which the Ki in assay [1] was less than 500 nM; in assay [2], greater than 500 nM.
For `CCC[C@H](c1nc2ccc(Br)cc2c(=O)n1CC)N1CCN(C)[C@H](C)C1` [Example 109, 6-Bromo-2-((R)-1-((R)-3,4-dimethylpiperazin-1-yl)butyl)-3-ethylquinazolin-4(3H)-one] the same measures were less than 500 nM and 100 to 500 nM.
The corresponding values for `CCC[C@H](c1nc2ccc(Br)cc2c(=O)n1CC)[C@H]1CCNCC1(F)F` (single isomer, unassigned) [Example 189] are less than 500 nM and greater than 500 nM.
The corresponding values for `CCC[C@H](c1nc2c(F)cc(Cl)cc2c(=O)n1CC)N1CCNCC1` [Example 199, (R)-6-chloro-3-ethyl-8-fluoro-2-(1-(piperazin-1-yl)butyl)quinazolin-4(3H)-one] are less than 500 nM and 100 to 500 nM.
For the molecule `CCC[C@H](c1nc2c(F)cc(OC)cc2c(=O)n1CC)N1CCNCC1` [Example 38, (R)-3-ethyl-8-fluoro-6-methoxy-2-(1-(piperazin-1-yl)butyl)quinazolin-4(3H)-one], the values for the Ki in assay [1] and in assay [2] were less than 500 nM and 100 to 500 nM, respectively.
For `CCC[C@H](c1nc2ccncc2c(=O)n1CC)N1CCN[C@H](C)C1` [Example 64, 3-Ethyl-2-((R)-1-((R)-3-methylpiperazin-1-yl)butyl)pyrido[4,3-d]pyrimidin-4(3H)-one] the same measures were less than 500 nM and greater than 500 nM.
For `CCCC(c1nc2cc(C(=O)O)ccc2c(=O)n1CC)N1C[C@@H](C)N[C@@H](C)C1` (stereo partly drawn) [Example 179, 2-(1-((3S,5R)-3,5-dimethylpiperazin-1-yl)butyl)-3-ethyl-4-oxo-3,4-dihydroquinazoline-7-carboxylic acid], the Ki is 500 to 5000 nM in assay [1] (read-out: α2δ-1 binding) and greater than 500 nM in assay [2] (read-out: μ-binding).
As for `CCCC(c1nc2cc(F)ccc2c(=O)n1CC)N1C[C@@H](C)N[C@@H](C)C1` (stereo partly drawn) [Example 11, 2-(1-((3S,5R)-3,5-dimethylpiperazin-1-yl)butyl)-3-ethyl-7-fluoroquinazolin-4(3H)-one], the Ki was less than 500 nM in assay [1] and greater than 500 nM in assay [2].
Turning to `CCCC(c1nc2ccccc2c(=O)n1CCN(C)CCCc1ccccc1)N1C[C@@H](C)N[C@@H](C)C1` (stereo partly drawn) [Example 130, 2-(1-((3S,5R)-3,5-dimethylpiperazin-1-yl)butyl)-3-(2-(methyl(3-phenylpropyl)amino)ethyl)quinazolin-4(3H)-one], the results for the Ki in assay [1] (read-out: α2δ-1 binding) and in assay [2] (read-out: μ-binding) were 500 to 5000 nM and greater than 500 nM, respectively.
Turning to `CCC[C@@H](c1nc2ccccc2c(=O)n1C)N1C[C@@H](C)N[C@@H](C)C1` [Example 31, 2-((S)-1-((3S,5R)-3,5-dimethylpiperazin-1-yl)butyl)-3-methylquinazolin-4(3H)-one], the Ki in assay [1] was 500 to 5000 nM; in assay [2] it was greater than 500 nM.
With `CCCC(c1nc2ncc(Br)cc2c(=O)n1CC)N1CCNCC1` (stereo not drawn) [Example 93, 6-bromo-3-ethyl-2-(1-(piperazin-1-yl)butyl)pyrido[2,3-d]pyrimidin-4(3H)-one], the Ki in assay [1] was less than 500 nM; in assay [2] it was greater than 500 nM.
The corresponding values for `CCCC(c1nc2ccccc2c(=O)n1Cc1ccco1)N1C[C@@H](C)N[C@@H](C)C1` (stereo partly drawn) [Example 118, 2-(1-((3S,5R)-3,5-dimethylpiperazin-1-yl)butyl)-3-(furan-2-ylmethyl)quinazolin-4(3H)-one] are less than 500 nM and greater than 500 nM.
Turning to `CCCC(c1nc2ccc(Br)cc2c(=O)n1C)N1C[C@@H](C)N[C@@H](C)C1` (stereo partly drawn) [Example 16, 6-bromo-2-(1-((3S,5R)-3,5-dimethylpiperazin-1-yl)butyl)-3-methylquinazolin-4(3H)-one], the Ki in assay [1] is less than 500 nM; in assay [2] it was greater than 500 nM.
`CCCC(c1nc2ccc(Br)cc2c(=O)n1CC)N1CCNCC1` (stereo not drawn) [Example 79, 6-Bromo-3-ethyl-2-(1-(piperazin-1-yl)butyl)quinazolin-4(3H)-one]: the Ki is less than 500 nM in assay [1] and greater than 500 nM in assay [2].
As for `CCC[C@H](c1nc2ccc(NCC[C@]3(c4ccccn4)CCOC4(CCCC4)C3)cc2c(=O)n1CC)N1C[C@@H](C)N[C@@H](C)C1` [Example 159, 2-((R)-1-((3S,5R)-3,5-dimethylpiperazin-1-yl)butyl)-3-ethyl-6-((2-((S)-9-(pyridin-2-yl)-6-oxaspiro[4.5]decan-9-yl)ethyl)amino)quinazolin-4(3H)-one], the Ki in assay [1] was 500 to 5000 nM; in assay [2], greater than 500 nM.
The corresponding values for `CCC[C@H](c1nc2cc(F)c(Cl)cc2c(=O)n1CC)N1CCN[C@@H](C)C1` [Example 53, 6-Chloro-3-ethyl-7-fluoro-2-((R)-1-((S)-3-methylpiperazin-1-yl)butyl)quinazolin-4(3H)-one] are less than 500 nM and 100 to 500 nM.
For the molecule `CCC[C@H](c1nc2ccc(Br)cc2c(=O)n1CC)N1CCN[C@H](C)C1` [Example 98, 6-bromo-3-ethyl-2-((R)-1-((R)-3-methylpiperazin-1-yl)butyl)quinazolin-4(3H)-one], the Ki was less than 500 nM in assay [1] and greater than 500 nM in assay [2].
Take `CCC[C@@H](c1nc2ccc(N3C[C@H](C)OC4(CCNCC4)C3)cc2c(=O)n1CC)N1C[C@@H](C)N[C@@H](C)C1` [Example 152, 2-((S)-1-((3S,5R)-3,5-Dimethylpiperazin-1-yl)butyl)-3-ethyl-6-((S)-2-methyl-1-oxa-4,9-diazaspiro[5.5]undecan-4-yl)quinazolin-4(3H)-one]: the values for the Ki in assay [1] (read-out: α2δ-1 binding) and in assay [2] (read-out: μ-binding) were 500 to 5000 nM and greater than 500 nM, respectively.
On to `CCCC(c1nc2ccc(NCC)cc2c(=O)n1CC)N1C[C@@H](C)N[C@@H](C)C1` (stereo partly drawn) [Example 24, 2-(1-((3S,5R)-3,5-dimethylpiperazin-1-yl)butyl)-3-ethyl-6-(ethylamino)quinazolin-4(3H)-one], for which the Ki in assay [1] was less than 500 nM; in assay [2], greater than 500 nM.
The corresponding values for `CCCC(c1nc2ccccc2c(=O)n1CCOC)N1C[C@@H](C)N[C@@H](C)C1` (stereo partly drawn) [Example 113, 2-(1-((3S,5R)-3,5-Dimethylpiperazin-1-yl)butyl)-3-(2-methoxyethyl)quinazolin-4(3H)-one] are less than 500 nM and greater than 500 nM.
Consider `CCC[C@@H](c1nc2ncc(Br)cc2c(=O)n1CCC)N1CCN[C@@H](C)C1` [Example 73, 6-bromo-2-((S)-1-((S)-3-methylpiperazin-1-yl)butyl)-3-propylpyrido[2,3-d]pyrimidin-4(3H)-one], for which the figures for the Ki in assay [1] and in assay [2] were greater than 5000 nM and greater than 500 nM, respectively.
For `CCC[C@H](c1nc2cc(F)c(F)cc2c(=O)n1CC)N1CCN[C@@H](C)C1` [Example 216, 3-ethyl-6,7-difluoro-2-((R)-1-((S)-3-methylpiperazin-1-yl)butyl)quinazolin-4(3H)-one] the same measures were less than 500 nM and 100 to 500 nM.
Consider `CCC[C@@H](c1nc2cc(O[C@@H](CNC)c3ccccc3)ccc2c(=O)n1C)N1C[C@@H](C)N[C@@H](C)C1` [Example 171, 2-((S)-1-((3S,5R)-3,5-dimethylpiperazin-1-yl)butyl)-3-methyl-7-((R)-2-(methylamino)-1-phenylethoxy)quinazolin-4(3H)-one], for which the Ki in assay [1] was 500 to 5000 nM; in assay [2], greater than 500 nM.
Take `CCCC(c1nc2cc(Br)ccc2c(=O)n1CC)N1CCNCC1` (stereo not drawn) [Example 81, 7-bromo-3-ethyl-2-(1-(piperazin-1-yl)butyl)quinazolin-4(3H)-one]: the figures for the Ki in assay [1] and in assay [2] were less than 500 nM and greater than 500 nM, respectively.
The corresponding values for `CCCC(c1nc2cc(CO)ccc2c(=O)n1C)N1C[C@@H](C)N[C@@H](C)C1` (stereo partly drawn) [Example 172, 2-(1-((3S,5R)-3,5-Dimethylpiperazin-1-yl)butyl)-7-(hydroxymethyl)-3-methylquinazolin-4(3H)-one] are less than 500 nM and greater than 500 nM.
The corresponding values for `CCC[C@@H](c1nc2c(F)cc(Br)cc2c(=O)n1CC)N1CCNCC1` [Example 95, (S)-6-bromo-3-ethyl-8-fluoro-2-(1-(piperazin-1-yl)butyl)quinazolin-4(3H)-one] are greater than 5000 nM and greater than 500 nM.
The corresponding values for `CCC[C@@H](c1nc2ccc(Br)cc2c(=O)n1CC)N1CCN(C)[C@@H](C)C1` [Example 111, 6-Bromo-2-((S)-1-((S)-3,4-dimethylpiperazin-1-yl)butyl)-3-ethylquinazolin-4(3H)-one] are greater than 5000 nM and greater than 500 nM.
As to `CCCC(c1nc2cc(F)c(F)cc2c(=O)n1CC)N1CCNCC1` (stereo not drawn) [Example 86, 3-ethyl-6,7-difluoro-2-(1-(piperazin-1-yl)butyl)quinazolin-4(3H)-one], the Ki was less than 500 nM in assay [1] and greater than 500 nM in assay [2].
The corresponding values for `CCCC(c1nc2ccc(Br)c(C)c2c(=O)n1CC)N1C[C@@H](C)N[C@@H](C)C1` (stereo partly drawn) [Example 21, 6-bromo-2-(1-((3S,5R)-3,5-dimethylpiperazin-1-yl)butyl)-3-ethyl-5-methylquinazolin-4(3H)-one] are less than 500 nM and greater than 500 nM.
For `CCCC(c1nc2ncccc2c(=O)n1CC)N1CCNCC1` (stereo not drawn) [Example 94, 3-ethyl-2-(1-(piperazin-1-yl)butyl)pyrido[2,3-d]pyrimidin-4(3H)-one] the same measures were less than 500 nM and greater than 500 nM.
The corresponding values for `CCC[C@H](c1nc2ccc(Br)cc2c(=O)n1CC)N1CCN(C)[C@@H](C)C1` [Example 112, 6-bromo-2-((R)-1-((S)-3,4-dimethylpiperazin-1-yl)butyl)-3-ethylquinazolin-4(3H)-one] are 500 to 5000 nM and less than 100 nM.
Regarding `CCC[C@H](c1nc2cc(F)c(Br)cc2c(=O)n1C)N1CCN[C@@H](C)C1` [Example 62, 6-Bromo-7-fluoro-3-methyl-2-((R)-1-((S)-3-methylpiperazin-1-yl)butyl)quinazolin-4(3H)-one], the values for the Ki in assay [1] and in assay [2] were less than 500 nM and 100 to 500 nM, respectively.
`CCC[C@H](c1nc2ccc(Br)cc2c(=O)n1C)N1CCN[C@@H](C)C1` [Example 41, 6-Bromo-3-methyl-2-((R)-1-((S)-3-methylpiperazin-1-yl)butyl)quinazolin-4(3H)-one]: the Ki was less than 500 nM in assay [1] and 100 to 500 nM in assay [2].
